Experimental data published in ChEMBL document CHEMBL1201862, “PubChem BioAssay data set” (2004).
The source made the active and inactive calls.

Tests used:
[1] = blockers of CRF-binding protein–CRF-R2 complex – cell-based, uHTS hits, 384-well, dose response (AID 651639); format: functional, Homo sapiens; details: read-out: IC50_Mean
[2] = biological target: T1, Corticotropin-releasing factor receptor 2/Corticotropin-releasing factor-binding protein (Homo sapiens, UniProt P24387+Q13324); assay: Dose Response confirmation of uHTS hits for small molecule antagonists of the CRF-binding protein and CRF-R2 receptor complex.; format: functional; details: read-out: IC50_Mean
T1 sequence (Q13324 whole entry): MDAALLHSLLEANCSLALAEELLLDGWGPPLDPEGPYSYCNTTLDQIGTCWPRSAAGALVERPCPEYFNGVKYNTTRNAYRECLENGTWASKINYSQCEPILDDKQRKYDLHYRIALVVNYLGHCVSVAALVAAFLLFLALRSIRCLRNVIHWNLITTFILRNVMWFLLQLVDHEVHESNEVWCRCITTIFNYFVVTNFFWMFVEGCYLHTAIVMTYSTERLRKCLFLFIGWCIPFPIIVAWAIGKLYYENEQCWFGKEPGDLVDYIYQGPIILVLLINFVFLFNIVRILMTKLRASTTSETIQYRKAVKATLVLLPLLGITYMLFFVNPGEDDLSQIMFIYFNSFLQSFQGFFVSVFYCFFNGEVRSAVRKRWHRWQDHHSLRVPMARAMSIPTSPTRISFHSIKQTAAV
T1 sequence (P24387 whole entry): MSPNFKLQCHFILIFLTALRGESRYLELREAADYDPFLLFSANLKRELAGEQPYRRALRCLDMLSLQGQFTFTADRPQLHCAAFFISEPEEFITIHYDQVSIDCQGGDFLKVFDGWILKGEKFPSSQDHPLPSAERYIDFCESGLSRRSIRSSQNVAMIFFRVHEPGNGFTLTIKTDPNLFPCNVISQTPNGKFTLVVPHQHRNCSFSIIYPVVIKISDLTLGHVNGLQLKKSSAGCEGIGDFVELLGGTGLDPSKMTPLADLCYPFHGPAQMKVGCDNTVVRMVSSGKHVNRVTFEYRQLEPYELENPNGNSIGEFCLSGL

[3] = biological target: T1, Corticotropin-releasing factor receptor 2/Corticotropin-releasing factor-binding protein; assay: activators of CRF receptor 2 with binding protein – uHTS hits, confirmation (AID 602473); format: functional; details: read-out: EC50_Mean
[4] = biological target: fMet-Leu-Phe receptor (Homo sapiens, UniProt P21462); assay: formyl peptide receptor binders – dose response (AID 519); format: functional
fMet-Leu-Phe receptor, sequence (P21462 whole entry): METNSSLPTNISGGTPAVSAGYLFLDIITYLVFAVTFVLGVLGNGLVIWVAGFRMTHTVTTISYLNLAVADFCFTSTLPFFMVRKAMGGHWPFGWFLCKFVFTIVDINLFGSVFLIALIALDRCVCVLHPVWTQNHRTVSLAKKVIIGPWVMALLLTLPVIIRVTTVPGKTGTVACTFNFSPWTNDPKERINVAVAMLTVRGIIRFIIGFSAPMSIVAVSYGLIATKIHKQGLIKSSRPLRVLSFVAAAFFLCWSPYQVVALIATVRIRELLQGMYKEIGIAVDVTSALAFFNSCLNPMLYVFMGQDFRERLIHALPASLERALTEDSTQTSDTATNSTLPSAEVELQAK

[5] = HGIII-sPLA2 enzyme inhibition potency – biochemical, QFRET, IC50, dose response (AID 743457);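 note: green fluorescence rise as the enzyme cleaves BODIPY PC-A2 in liposomes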
[6] = biological target: Nuclear receptor subfamily 5 group A member 2 (Homo sapiens, UniProt O00482); format: functional, cell-based;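 note: HEK293T cells transfected with LRH-1 and a StAR promoter luciferase reporter; potency for inhibitors that lower LRH-1 driven reporter light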
Nuclear receptor subfamily 5 group A member 2, sequence (O00482 whole entry): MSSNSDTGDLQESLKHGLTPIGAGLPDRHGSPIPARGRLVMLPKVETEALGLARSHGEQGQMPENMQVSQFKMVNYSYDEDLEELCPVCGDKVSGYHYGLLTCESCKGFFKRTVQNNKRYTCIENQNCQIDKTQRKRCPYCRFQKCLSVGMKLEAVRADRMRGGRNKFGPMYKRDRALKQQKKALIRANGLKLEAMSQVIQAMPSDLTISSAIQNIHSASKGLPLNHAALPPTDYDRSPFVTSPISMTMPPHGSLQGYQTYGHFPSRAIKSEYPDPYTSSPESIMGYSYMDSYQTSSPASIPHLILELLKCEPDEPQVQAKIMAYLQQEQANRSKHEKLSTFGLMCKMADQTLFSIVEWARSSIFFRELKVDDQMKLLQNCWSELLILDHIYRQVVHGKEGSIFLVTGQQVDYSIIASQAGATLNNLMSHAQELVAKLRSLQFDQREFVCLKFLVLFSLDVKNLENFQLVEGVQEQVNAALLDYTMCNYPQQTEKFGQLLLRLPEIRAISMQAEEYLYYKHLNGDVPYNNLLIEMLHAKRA

[7] = biological target: Steroidogenic factor 1 (Homo sapiens, UniProt Q13285); assay: Counterscreen for inverse agonists of the liver receptor homolog-1 (LRH-1; NR5A2): Luminescence-based cell-based high throughput dose response assay to identify inverse agonists of the Steroidogenic Factor 1 Nuclear Receptor (SF1; NR5A1).; format: functional
Steroidogenic factor 1, sequence (Q13285 whole entry): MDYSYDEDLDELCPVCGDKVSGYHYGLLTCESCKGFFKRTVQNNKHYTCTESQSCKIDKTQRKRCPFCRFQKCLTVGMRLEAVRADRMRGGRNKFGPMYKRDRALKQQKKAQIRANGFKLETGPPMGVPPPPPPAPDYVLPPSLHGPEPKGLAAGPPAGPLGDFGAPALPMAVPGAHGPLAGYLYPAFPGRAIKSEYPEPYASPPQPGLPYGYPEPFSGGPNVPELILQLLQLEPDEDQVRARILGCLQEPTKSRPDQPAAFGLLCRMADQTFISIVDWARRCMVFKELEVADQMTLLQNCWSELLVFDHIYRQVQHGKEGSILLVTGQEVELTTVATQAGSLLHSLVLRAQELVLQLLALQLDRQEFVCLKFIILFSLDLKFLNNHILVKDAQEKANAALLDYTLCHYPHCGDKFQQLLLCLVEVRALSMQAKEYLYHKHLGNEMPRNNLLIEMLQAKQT

[8] = nonselective StAR promoter luciferase inhibitors – cell-based, luminescence, luciferase reporter, counter-screen for LRH-1 inverse agonist project, dose response (AID 651969); format: functional
[9] = biological target: T2, Trace amine-associated receptor 1 (Homo sapiens, UniProt Q96RJ0); assay: Fluorescence-based cell-based high throughput dose response assay to identify agonists of the human trace amine associated receptor 1 (TAAR1).; format: functional
T2 sequence (Q96RJ0 whole entry): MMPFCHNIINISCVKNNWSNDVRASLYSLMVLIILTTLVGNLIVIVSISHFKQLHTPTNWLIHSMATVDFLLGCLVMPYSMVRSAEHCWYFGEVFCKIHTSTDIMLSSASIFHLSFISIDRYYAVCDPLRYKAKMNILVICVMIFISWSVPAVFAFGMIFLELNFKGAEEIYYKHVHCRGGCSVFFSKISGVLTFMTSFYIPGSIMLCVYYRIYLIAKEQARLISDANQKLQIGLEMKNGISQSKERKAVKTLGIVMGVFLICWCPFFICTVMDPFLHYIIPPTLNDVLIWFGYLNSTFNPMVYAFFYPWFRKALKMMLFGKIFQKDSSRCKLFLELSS

[10] = cells; format: functional, cell-based
[11] = cells; format: functional, cell-based; remark: listed apart in the source
[12] = biological target: T2, Trace amine-associated receptor 1; assay: Counterscreen for agonists of the human trace amine associated receptor 1 (hTAAR1): Fluorescence-based cell-based high throughput dose response assay to identify hTAAR1 agonist that also desensitize TAAR1 receptor response.; format: functional
[13] = biological target: Fructose-bisphosphate aldolase (Mycobacterium tuberculosis, UniProt P9WQA3); assay: Fluorescence-based biochemical high throughput dose response assay for inhibitors of the fructose-bisphosphate aldolase (FBA) of M. tuberculosis.; format: functional
Fructose-bisphosphate aldolase, sequence (P9WQA3 whole entry): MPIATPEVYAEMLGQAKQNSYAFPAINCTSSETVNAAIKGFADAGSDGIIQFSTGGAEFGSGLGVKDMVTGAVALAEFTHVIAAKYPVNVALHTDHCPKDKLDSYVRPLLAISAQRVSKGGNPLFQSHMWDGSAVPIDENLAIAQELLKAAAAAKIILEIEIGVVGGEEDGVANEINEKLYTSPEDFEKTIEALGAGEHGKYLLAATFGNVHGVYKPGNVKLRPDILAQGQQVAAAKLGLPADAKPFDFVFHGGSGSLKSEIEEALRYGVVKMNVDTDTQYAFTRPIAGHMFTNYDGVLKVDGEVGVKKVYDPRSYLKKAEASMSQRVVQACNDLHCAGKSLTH

[14] = biological target: T3, Protein skinhead-1 (Caenorhabditis elegans, UniProt P34707); format: functional
T3 sequence (P34707 whole entry): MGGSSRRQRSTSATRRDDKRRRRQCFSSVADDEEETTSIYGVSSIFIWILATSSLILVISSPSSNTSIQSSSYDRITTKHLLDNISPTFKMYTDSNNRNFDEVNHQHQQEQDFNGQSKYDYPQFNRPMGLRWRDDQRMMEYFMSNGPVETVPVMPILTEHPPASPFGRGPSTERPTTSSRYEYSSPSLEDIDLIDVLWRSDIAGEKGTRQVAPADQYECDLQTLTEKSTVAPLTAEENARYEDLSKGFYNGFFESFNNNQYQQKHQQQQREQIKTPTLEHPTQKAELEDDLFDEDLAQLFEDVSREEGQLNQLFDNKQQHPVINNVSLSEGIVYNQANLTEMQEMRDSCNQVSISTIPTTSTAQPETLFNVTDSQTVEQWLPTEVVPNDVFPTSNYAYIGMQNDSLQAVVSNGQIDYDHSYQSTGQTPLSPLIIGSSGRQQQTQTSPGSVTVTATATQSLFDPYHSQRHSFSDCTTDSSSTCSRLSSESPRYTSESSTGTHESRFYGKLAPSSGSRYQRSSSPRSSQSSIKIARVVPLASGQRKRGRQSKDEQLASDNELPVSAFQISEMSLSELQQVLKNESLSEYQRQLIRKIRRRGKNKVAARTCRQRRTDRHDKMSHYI

[15] = biological target: Mitogen-activated protein kinase 10 (Homo sapiens, UniProt P53779); assay: Dose response biochemical screening assay for inhibitors of c-Jun N-Terminal Kinase 3 (JNK3). [Related pubchem assays: 746 ]
Mitogen-activated protein kinase 10, sequence (P53779 whole entry, the tested form may be a part): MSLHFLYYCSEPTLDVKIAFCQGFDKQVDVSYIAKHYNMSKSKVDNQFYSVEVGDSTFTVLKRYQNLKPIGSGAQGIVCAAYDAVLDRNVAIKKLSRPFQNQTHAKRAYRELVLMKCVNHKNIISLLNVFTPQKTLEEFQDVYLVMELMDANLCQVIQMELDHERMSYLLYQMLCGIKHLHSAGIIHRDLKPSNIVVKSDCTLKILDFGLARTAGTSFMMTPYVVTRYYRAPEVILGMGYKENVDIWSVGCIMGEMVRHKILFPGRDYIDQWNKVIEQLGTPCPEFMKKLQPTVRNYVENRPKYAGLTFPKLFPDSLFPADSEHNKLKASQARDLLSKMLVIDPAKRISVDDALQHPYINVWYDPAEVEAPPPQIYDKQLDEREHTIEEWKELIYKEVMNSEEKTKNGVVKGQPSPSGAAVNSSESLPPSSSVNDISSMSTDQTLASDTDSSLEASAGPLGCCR

[16] = biological target: T4, Disintegrin and metalloproteinase domain-containing protein 17 (Homo sapiens, UniProt P78536); assay: exosite inhibitors of ADAM17, dose response, biochemical (AID 743260)
T4 sequence (P78536 whole entry, the tested form may be a part): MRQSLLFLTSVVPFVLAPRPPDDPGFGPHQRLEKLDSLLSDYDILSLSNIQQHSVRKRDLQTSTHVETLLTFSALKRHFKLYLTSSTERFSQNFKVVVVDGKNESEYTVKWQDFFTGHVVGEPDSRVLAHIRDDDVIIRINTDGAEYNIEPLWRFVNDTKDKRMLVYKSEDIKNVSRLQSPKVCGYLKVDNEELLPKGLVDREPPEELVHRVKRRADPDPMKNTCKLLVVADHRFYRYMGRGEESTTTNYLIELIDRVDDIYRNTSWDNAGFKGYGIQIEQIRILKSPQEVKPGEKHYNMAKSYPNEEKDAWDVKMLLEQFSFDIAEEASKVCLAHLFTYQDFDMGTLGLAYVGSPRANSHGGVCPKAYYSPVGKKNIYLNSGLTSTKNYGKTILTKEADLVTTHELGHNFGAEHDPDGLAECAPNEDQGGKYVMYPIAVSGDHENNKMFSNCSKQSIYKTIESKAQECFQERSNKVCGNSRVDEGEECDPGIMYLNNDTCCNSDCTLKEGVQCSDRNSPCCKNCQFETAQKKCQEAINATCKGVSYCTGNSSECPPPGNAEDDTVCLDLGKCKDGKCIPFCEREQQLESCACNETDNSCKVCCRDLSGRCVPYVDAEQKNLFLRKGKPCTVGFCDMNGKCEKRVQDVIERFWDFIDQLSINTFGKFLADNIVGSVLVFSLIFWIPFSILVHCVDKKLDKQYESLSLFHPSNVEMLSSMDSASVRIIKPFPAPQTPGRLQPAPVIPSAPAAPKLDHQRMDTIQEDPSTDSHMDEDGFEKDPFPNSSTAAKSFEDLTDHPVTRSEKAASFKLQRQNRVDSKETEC

[17] = potency of ADAM10 substrate cleavage blockers – biochemical, QFRET, dose response (AID 743254);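 note: ADAM10 enzyme with the DM2 quenched FRET peptide as substrate; EDANS fluorescence gain as the protease cuts the substrate; inhibitor potency against ADAM10 proteolytic activity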
[18] = biological target: T4, Disintegrin and metalloproteinase domain-containing protein 17; assay: inhibition of ADAM17 substrate cleavage – biochemical, quenched FRET substrate, counter-screen for ADAM10 exosite inhibitor project, dose response (AID 743253)
[19] = inhibition of ADAM10 peptide cleavage – biochemical, FRET peptide substrate, recombinant human ADAM10, selectivity assay for ADAM17 exosite inhibitor project, dose response (AID 743259);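 note: ADAM10 enzyme cleaving a FRET peptide substrate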
[20] = biological target: Paired box protein Pax-8 (Homo sapiens, UniProt Q06710); assay: PAX8 transcriptional activity inhibition in RMG-I – RMG-I cells, luciferase, cherry-pick, dose response (AID 687027); format: functional, cell-based;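 note: luciferase reporter driven by Pax8 target thyroperoxidase promoter measured by SteadyGlo luminescence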
Paired box protein Pax-8, sequence (Q06710 whole entry): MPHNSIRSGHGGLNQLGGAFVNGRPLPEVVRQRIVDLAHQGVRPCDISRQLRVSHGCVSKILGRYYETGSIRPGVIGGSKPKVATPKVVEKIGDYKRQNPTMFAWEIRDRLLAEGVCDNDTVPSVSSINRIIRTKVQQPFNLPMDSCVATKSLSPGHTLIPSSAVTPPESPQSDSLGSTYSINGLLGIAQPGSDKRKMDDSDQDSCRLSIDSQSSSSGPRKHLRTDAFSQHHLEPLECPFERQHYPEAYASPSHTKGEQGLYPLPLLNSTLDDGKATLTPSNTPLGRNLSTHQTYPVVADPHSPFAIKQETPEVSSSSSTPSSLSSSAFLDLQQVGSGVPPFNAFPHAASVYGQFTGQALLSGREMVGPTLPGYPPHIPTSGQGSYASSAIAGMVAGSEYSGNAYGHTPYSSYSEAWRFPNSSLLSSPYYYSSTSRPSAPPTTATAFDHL

[21] = general cell-killing toxicity readout – plate reader, dry powder samples, cytotoxicity control for PAX8 inhibitor project, dose response (AID 743021); format: functional, cell-based
[22] = IGROV1 cell killing – plate reader, dry powder samples, PAX8 inhibitor project, dose response (AID 743043); format: functional, cell-based; details: IGROV-1
[23] = OVCAR-3 cell viability loss – plate reader, dry powder samples, PAX8 inhibitor project, dose response (AID 743044); format: functional, cell-based
[24] = OVCAR8 cell viability loss – plate reader, dry powder samples, PAX8 project, dose response (AID 743197); format: functional, cell-based; details: OVCAR-8
[25] = cells; details: A549
[26] = Luminescence Cell-Based Dose Confirmation HTS to Identify Activators of 5'UTR Stem-Loop Driven Alpha-Synuclein mRNA Translation in H4 Neuroglioblastoma Cells. [Related pubchem assays: 1829 (Project Summary), 1814 (Primary HTS)]; format: functional
[27] = cells; details: HEK293
[28] = Luminescence Cell-Based Dose Response HTS to Identify Activators of Luciferase Translation or Activity in H4 […] Cells. [Related pubchem assays: 1829 (Project Summary), 1814 (Primary HTS)]; format: functional
[29] = system: H4; assay: Luminescence Cell-Based Dose Response HTS to Identify Activators of 5'UTR Stem-Loop Driven Prion Protein mRNA Translation in H4 Neuroglioblastoma Cells. [Related pubchem assays: 1829 (Project Summary), 1814 (Primary HTS)]; format: functional; details: Homo sapiens
[30] = T. cruzi growth inhibition in host cells, dose response, cell-based, plate reader, dry powder, set 2 (AID 652275); format: functional

COc1cccc(CN2C(=O)C(C)N(C(=O)c3ccccc3)c3ccccc32)c1 (stereo unspecified)
IC50 [1]: 9.26 µM (active)
IC50 [2]: 26.9 µM (active)
EC50 [3]: > 53 µM (inactive)

COc1ccc(C(=O)C2=C(O)C(=O)N(CCN3CCOCC3)C2c2ccc(C)cc2)cc1 (stereo unspecified)
Ki [4]: > 66.7 µM (inactive)

Cn1cccc1CC(=O)NN=C(S)Nc1ccccc1Cl
IC50 [5]: > 122 µM (inactive)

O=C(COc1ccc2c3c(c(=O)oc2c1)CCC3)NCc1ccncc1
IC50 [6]: 35.9 µM (inactive)
IC50 [7]: 35.9 µM (inactive)
IC50 [8]: 35.9 µM (inactive)

CC(=O)c1ccc(NC(=O)Nc2ccccc2)cc1
EC50 [9]: 3.14 µM (active)
EC50 [10]: > 29.9 µM (inactive)
IC50 [11]: 29.8 µM (inactive)
IC50 [12]: > 3.32 µM (active)

O=C(Nc1ccc(-c2nc3cccnc3s2)cc1)c1ccco1
IC50 [13]: 1.32 µM (active)
IC50 [14]: 83.1 µM (inactive)
IC50 [15]: > 93.1 µM (not active)

OCc1ccc2c(c1)c(-c1ccc3c(c1)OCCO3)c(-c1ccccc1)n2-c1ccccc1
IC50 [13]: 0.913 µM (active)

Cc1cc(Br)ccc1NC(=O)CN1C(=O)C2CC=CCC2C1=O (stereo unspecified)
IC50 [6]: 0.169 µM (active)
IC50 [7]: 0.105 µM (active)
IC50 [8]: 35.9 µM (inactive)

O=C(CSc1ccc(Cl)cc1Cl)N1CCC(c2nc3ccccc3s2)CC1
IC50 [16]: > 69.5 µM (inactive)
IC50 [17]: 22.1 µM (inactive)
IC50 [18]: > 69.5 µM (inactive)
IC50 [19]: 18.8 µM (inactive)

O=S(=O)(Nc1cc(Cl)ccc1-n1cncn1)c1ccccc1Cl
IC50 [1]: > 20 µM (inactive)
IC50 [2]: 32.6 µM (active)
EC50 [3]: > 53 µM (inactive)

C=CCC[C@@H](Cc1ccc(F)cc1)C(=O)OC[C@@H](NC(=O)[C@H](CC=C)CC(=O)N(CCO)Cc1ccccc1)c1ccccc1
IC50 [17]: 27.4 µM (inactive)
IC50 [18]: > 69.5 µM (inactive)

Cc1cc(O)nc(Nc2cccc(F)c2)n1
EC50 [9]: 8.54 µM (active)
EC50 [10]: > 29.9 µM (inactive)
IC50 [11]: > 29.9 µM (inactive)
IC50 [12]: > 29.9 µM (inactive)

C[C@H](CO)N1C[C@H](C)[C@H](CN(C)Cc2ccc(C(F)(F)F)cc2)OCCCC[C@H](C)Oc2ccc(NS(=O)(=O)c3ccccc3)cc2C1=O
AC50 [20]: 9.01 µM (active)
AC50 [21]: 55.7 µM (active)
AC50 [22]: 55.8 µM (active)
AC50 [23]: 45 µM (active)
AC50 [24]: 48.9 µM (active)

C[C@@H]1CN([C@@H](C)CO)C(=O)Cc2cc(NC(=O)Nc3ccc4c(c3)OCO4)ccc2O[C@H]1CN(C)CC1CCCCC1
AC50 [20]: 9.15 µM (active)
AC50 [22]: 58.1 µM (active)
AC50 [23]: 37 µM (active)

COC(=O)c1cc(=O)n(Cc2ccc3c(c2)OCO3)/c(=N/c2ccc(F)c(Cl)c2)s1
AC50 [25]: 23.3 µM (active)
EC50 [26]: 10.4 µM (active)
AC50 [27]: 20 µM (active)
EC50 [28]: > 120 µM (not active)
EC50 [29]: > 120 µM (not active)

CN(C)C(=O)c1ccc(-c2ccc([C@H]3[C@H](CO)N4CCCCN(Cc5cncnc5)C[C@@H]34)cc2)cc1
AC50 [30]: 0.472 µM (active)
